The values that follow come from US4006225A, “Method of using reduction products of everninomicins as antibacterial agents and pharmaceutical compositions useful therefor” (Schering Corporation, priority 1975, dated 1977).

In data set [1] the test system is Staphylococcus and Streptococcus. Briefly: in vitro susceptibility of gram-positive microorganisms, standard tube dilution (MIC). In kind it is cell-based. Particulars: for MIC: Staphylococcus and Streptococcus, 24 hours at 37° C, Penassay broth; for antibacterial activity compared with everninomicin D: gram-positive bacteria. The protocol:
The comparative in vitro activities of nitrosoeverninomicin D and the sodium salt thereof, hydroxylaminoeverninomicin D and the sodium salt and N-methylglucamine salt thereof, hydroxylaminoeverninomicin D benzyl nitrone N-methylglucamine salt, hydroxylaminoeverninomicin B and hydroxylaminoeverninomicin C are set forth in Table 1 below. The susceptibility of the test gram-positive microorganisms to the antibacterials was determined by standard tube dilution methods. In each instance 10^^-5 dilutions of 24-hour broth cultures were employed as inoculum with the endpoints being taken after incubation for 24 hours at 37° C in a Difco […] broth medium (Difco Labs., Detroit, Michigan). In the tables, the activity (or assay value) of each respective antibacterial agent is expressed in units per milliliter or micrograms per milliliter.

In data set [2] the test system is N.gonorrhea and N.meningitidis. Put plainly: in vitro susceptibility of gram-negative microorganisms, plate dilution in Thayer-Martin medium (MIC). The conditions noted are these: for MIC: N.gonorrhea and N.meningitidis, Thayer-Martin medium. In kind it is cell-based, Neisseria gonorrhea and Neisseria meningitidis. As for the experimental part:
The susceptibility of the gram-negative microorganisms to the antibacterials was determined by plate dilution methods in Thayer-Martin medium by the known Thayer-Martin procedure.

Data set [3] is described as follows: acute toxicity (LD50) in mice. Particulars: mouse, in vivo; for LD50 in mice I.P. (mg/kg): ip; for LD50 in mice I.V. (mg/kg): iv; for LD50 in mice S.C. (mg/kg): sc. As for the experimental part: The acute toxicity (LD50) of the antibacterial substances in either aqueous suspensions or aqueous solutions is measured in milligrams per kilogram in standard manner using male CF-1 mice weighing 20 grams.

Data set [4] can be described thus: peak serum levels in dogs. In kind it is in vivo. The conditions noted are these: dog, 10 mg/kg I.M. The protocol: (§1) In determining peak serum levels, the animal tested (e.g. dog or rat) is given a single dose of 10 or 25 mg/kg of everninomicin D or derivative thereof of this invention, blood samples are taken periodically, and the serum thereof is assayed for anti-bacterial activity by an agar-diffusion-assay as described by Weinstein et al., Antimicrobial Agents and Chemotherapy, p 24 (1964).

Data set [5] can be described thus: peak serum levels in rats. It is filed as in vivo. Particulars: rat, 25 mg/kg S.C. As for the experimental part:
as §1

The nature of data set [6]: absorption, serum levels and excretion after injection compared with everninomicin D. In kind it is in vivo. The conditions noted are these: by injection. The protocol: as §1
Data set [7] relates to S. aureus (A.T.C.C. 6538p). Put plainly: microbiological assay (bioassay), cup-type agar diffusion. It is filed as cell-based. The protocol:
The microbiological assay (also called the bioassay) is effected microbiologically by a standard cup-type agar diffusion assay technique using S. aureus (A.T.C.C. 6538p) as test organism. A reference curve is prepared by plotting the dosage-response of the antibacterial agent in ethanol diluted by phosphate buffer at pH7 upon a medium of the following composition which has been inoculated with the test organism (i.e. S. aureus): A suspension of the assay organism (S. aureus A.T.C.C. 6538p) is standardized to produce 20% transmission at 660 mμ in a colorimeter. The potency of the sample is determined from the reference curve and expressed in terms of units per milligram (a unit being that amount of test substance required to produce a 15 mm zone of inhibition with a steel cylinder of 6.5 mm outside diameter).
On the technique in general: In agar diffusion tests the substance spreads into inoculated agar from a disc or well.

A short description of data set [8]: pKa of purified everninomicin D. It is filed as physicochemical.

Converted amounts (≈) assume the structure as drawn. “And” between values parts separate entries of the source, which are not always exact repeats. Equal entries are not always repeated. “Also recorded” adds a separate entry of the source. Structures can show the parent of a compound that is named as a salt. Where two headings read alike, the source gives them in different places. Bounds are passed on as bounds.

As for `COCC1OC(OC2OCC3OC4(OCC(O)(C(C)OC)C5OCOC54)OC3C2OC)C(OC)C(O)C1OC1OC(C)C(OC)C(OC2CC3(C)OC4(CC(O)C(OC5CC(OC6CC(C)(NO)C(OC)C(C)O6)C(OC(=O)c6c(C)c(Cl)c(O)c(Cl)c6OC)C(C)O5)C(C)O4)OC3C(C)O2)C1O` (stereo not drawn) [Hydroxylaminoeverninomicin D N-methylglucamine salt], the MIC (usually the lowest concentration found to suppress growth) in data set [1] was in the range of 0.08 to 0.8 mg/L. For the same compound, the “MIC” value in data set [2] fell in the range of 0.2 to 1.0 mg/L. Moreover, in data set [3], the “LD50 in mice I.P. (mg/kg)” value came out at 500, the “LD50 in mice I.V. (mg/kg)” value is recorded as 30, the “LD50 in mice Oral (mg/kg)” value was over 2000 and the “LD50 in mice S.C. (mg/kg)” value came to 500. Also, the “Peak serum levels in dogs” value in data set [4] lay within 20 to 30 µg/mL. For the same compound, the “Peak serum levels in rats” value in data set [5] was in the range of 30 to 40 µg/mL.
As for `COCC1OC(OC2OCC3OC4(OCC(O)(C(C)OC)C5OCOC54)OC3C2OC)C(OC)C(O)C1OC1OC(C)C(OC)C(OC2CC3(C)OC4(CC(O)C(OC5CC(OC6CC(C)(NO)C(OC)C(C)O6)C(OC(=O)c6c(C)c(Cl)c(O)c(Cl)c6OC)C(C)O5)C(C)O4)OC3C(C)O2)C1O` (stereo not drawn) [Hydroxylaminoeverninomicin D, hydroxylaminoeverninomicin D], in data set [1], the minimal inhibitory concentration (MIC) lay within 0.3 to 0.8 mg/L and the “antibacterial activity compared with everninomicin D” value is “antibacterial activity comparable to that of everninomicin D; also recorded: comparable antibacterial activity against gram-positive bacteria”. Moreover, in data set [2] (certain gram-negative bacteria, in words), the “activity against certain gram-negative bacteria” value was “certain gram-negative bacteria are also susceptible”. Moreover, the “absorption compared with everninomicin D” value in data set [6] is on record as “more rapidly absorbed”.
For `COCC1OC(OC2OCC3OC4(OCC(O)(C(C)OC)C5OCOC54)OC3C2OC)C(OC)C(O)C1OC1OC(C)C(OC)C(OC2CC3(C)OC4(CC(O)C(OC5CC(OC6CC(C)([N+]([O-])=Cc7ccccc7)C(OC)C(C)O6)C(OC(=O)c6c(C)c(Cl)c(O)c(Cl)c6OC)C(C)O5)C(C)O4)OC3C(C)O2)C1O` (stereo not drawn) [hydroxylaminoeverninomicin D benzyl nitrone], the Bioassay in data set [7] was found to be 1309.0 µg/mL.
Turning to `COCC1OC(OC2OCC3OC4(OCC(O)(C(C)OC)C5OCOC54)OC3C2OC)C(OC)C(O)C1OC1OC(C)C(OC)C(OC2CC3(C)OC4(CC(O)C(OC5CC(OC6CC(C)([N+](=O)[O-])C(OC)C(C)O6)C(OC(=O)c6c(C)c(Cl)c(O)c(Cl)c6OC)C(C)O5)C(C)O4)OC3C(C)O2)C1O` (stereo not drawn) [Everninomicin D, everninomicin D, reference compound], the MIC in data set [1] (24 h, read-out: MIC) is 0.03 to 0.3 mg/L (≈ 0.0195 to 0.195 µM). Moreover, in data set [3], the “LD50 in mice I.P. (mg/kg)” value is over 3800, the “LD50 in mice I.V. (mg/kg)” value is 125, the “LD50 in mice Oral (mg/kg)” value is over 3800 and the “LD50 in mice S.C. (mg/kg)” value is reported as over 3800. Besides, the “Peak serum levels in dogs” value in data set [4] is 2 to 3 µg/mL. The “Peak serum levels in rats” value in data set [5] lay in the range of 10 to 12 µg/mL. Moreover, the pKa (in general, the pH at which an ionisable group is half protonated) in data set [8] is recorded as 7.2.
Consider `COCC1OC(OC2OCC3OC4(OCC(O)(C(C)OC)C5OCOC54)OC3C2OC)C(OC)C(O)C1OC1OC(C)C(OC)C(OC2CC3(C)OC4(CC(O)C(OC5CC(OC6CC(C)(NO)C(OC)C(C)O6)C(OC(=O)c6c(C)c(Cl)c(O)c(Cl)c6OC)C(C)O5)C(C)O4)OC3C(C)O2)C1O` (stereo not drawn) [Hydroxylaminoeverninomicin D sodium salt, hydroxylaminoeverninomicin D sodium salt], for which, in data set [1] (sodium salt), the minimum inhibitory concentration (MIC) was 0.08 to 0.8 mg/L and the “antibacterial activity compared with everninomicin D” value is reported as “antibacterial activity comparable to that of the everninomicin D precursor; also recorded: comparable antibacterial activity against gram-positive bacteria”. The minimum inhibitory concentration (MIC) in data set [2] (Neisseria meningitidis, read-out: MIC) is 0.2 to 1 mg/L. In addition, in data set [3], the “LD50 in mice I.P. (mg/kg)” value is 500, the “LD50 in mice I.V. (mg/kg)” value is recorded as 30, the “LD50 in mice Oral (mg/kg)” value was over 2000 and the “LD50 in mice S.C. (mg/kg)” value is 500. Also, in data set [4], the “Peak serum levels in dogs” value lay within 20 to 30 µg/mL. Moreover, the “Peak serum levels in rats” value in data set [5] was in the range of 30 to 40 µg/mL. Further, in data set [6], the “absorption compared with everninomicin D” value was “more rapidly absorbed”, the “excretion compared with everninomicin D” value was “more rapidly excreted than everninomicin D” and the “serum levels compared with everninomicin D” value is reported as “higher serum levels”.
Regarding `COCC1OC(OC2OCC3OC4(OCC(O)(C(C)OC)C5OCOC54)OC3C2OC)C(OC)C(O)C1OC1OC(C)C(OC)C(OC2CC3(C)OC4(CC(O)C(OC5CC(OC6CC(C)(N=O)C(OC)C(C)O6)C(OC(=O)c6c(C)c(Cl)c(O)c(Cl)c6OC)C(C)O5)C(C)O4)OC3C(C)O2)C1O` (stereo not drawn) [Nitrosoeverninomicin D sodium salt, nitrosoeverninomicin D sodium salt], the “MIC” value in data set [1] (sodium salt) is 0.08 to 3 mg/L.
For `COCC1OC(OC2OCC3OC4(OCC(O)(C(C)OC)C5OCOC54)OC3C2OC)C(OC)C(O)C1OC1OC(C)C(OC)C(OC2CC3(C)OC4(CC(O)C(OC5CC(OC6CC(C)(N=O)C(OC)C(C)O6)C(OC(=O)c6c(C)c(Cl)c(O)c(Cl)c6OC)C(C)O5)C(C)O4)OC3C(C)O2)C1O` (stereo not drawn) [Nitrosoeverninomicin D, nitrosoeverninomicin D], the minimum inhibitory concentration (MIC) in data set [1] (24 h, read-out: MIC) is 0.08 to 0.8 mg/L (≈ 0.0526 to 0.526 µM). Besides, the Bioassay in data set [7] was 1460 µg/mL. Moreover, in data set [4], the “Peak serum levels in dogs” value stood at 6 µg/mL. Besides, the “Peak serum levels in rats” value in data set [5] was in the range of 10 to 11 µg/mL.
Regarding `CCCCCCC=[N+]([O-])C1(C)CC(OC2CC(OC3C(O)CC4(OC3C)OC3C(C)OC(OC5C(O)C(OC6C(COC)OC(OC7OCC8OC9(OCC(O)(C(C)OC)C%10OCOC%109)OC8C7OC)C(OC)C6O)OC(C)C5OC)CC3(C)O4)OC(C)C2OC(=O)c2c(C)c(Cl)c(O)c(Cl)c2OC)OC(C)C1OC` (stereo not drawn) [hydroxylaminoeverninomicin D heptyl nitrone], in data set [7], the Bioassay stood at 892 µg/mL.
Regarding `COCC1OC(OC2OCC3OC4(OCC(O)C5OCOC54)OC3C2OC)C(OC)C(O)C1OC1OC(C)C(OC)C(OC2CC3(C)OC4(CC(O)C(OC5CC(OC6CC(C)(NO)C(OC)C(C)O6)C(OC(=O)c6c(C)c(Cl)c(O)c(Cl)c6OC)C(C)O5)C(C)O4)OC3C(C)O2)C1O` (stereo not drawn) [Hydroxylaminoeverninomicin C, hydroxylaminoeverninomicin C], the MIC in data set [1] (24 h, read-out: MIC) was in the range of 0.1 to 0.8 mg/L (≈ 0.0682 to 0.546 µM). Moreover, in data set [4] (serum, im), the maximum concentration (Cmax) (usually the maximum level reached in the sampled fluid or tissue) worked out at 15 µg/mL.
For the compound `COCC1OC(OC2OCC3OC4(OCC(O)(C(C)OC)C5OCOC54)OC3C2OC)C(OC)C(O)C1OC1OC(C)C(OC)C(OC2OC(C)C3OC4(CC(O)C(OC5CC(OC6CC(C)(NO)C(OC)C(C)O6)C(OC(=O)c6c(C)c(Cl)c(O)c(Cl)c6OC)C(C)O5)C(C)O4)OC3(C)C2O)C1O` (stereo not drawn) [Hydroxylaminoeverninomicin B, hydroxylaminoeverninomicin B], the MIC in data set [1] (24 h, read-out: MIC) was in the range of 0.1 to 1 mg/L (≈ 0.065 to 0.65 µM).
`COCC1OC(OC2OCC3OC4(OCC(O)(C(C)OC)C5OCOC54)OC3C2OC)C(OC)C(O)C1OC1OC(C)C(OC)C(OC2CC3(C)OC4(CC(O)C(OC5CC(OC6CC(C)([N+]([O-])=Cc7ccco7)C(OC)C(C)O6)C(OC(=O)c6c(C)c(Cl)c(O)c(Cl)c6OC)C(C)O5)C(C)O4)OC3C(C)O2)C1O` (stereo not drawn) [hydroxylaminoeverninomicin D furfuryl nitrone]: the Bioassay in data set [7] is 1063.4 µg/mL.
Regarding `COCC1OC(OC2OCC3OC4(OCC(O)(C(C)OC)C5OCOC54)OC3C2OC)C(OC)C(O)C1OC1OC(C)C(OC)C(OC2CC3(C)OC4(CC(O)C(OC5CC(OC6CC(C)([N+]([O-])=Cc7ccccc7)C(OC)C(C)O6)C(OC(=O)c6c(C)c(Cl)c(O)c(Cl)c6OC)C(C)O5)C(C)O4)OC3C(C)O2)C1O` (stereo not drawn) [hydroxylaminoeverninomicin D benzyl nitrone N-methylglucamine salt], the “Peak serum levels in dogs” value in data set [4] fell in the range of 1 to 2 µg/mL. Besides, the “Peak serum levels in rats” value in data set [5] (25 mg/kg) was 10 to 12 µg/mL and 9 µg/mL.
